Experimental data as given in the supplement of paper PMC4862054.

Legend:
Conditions in all cases: 72 h
[1] = test system: MCF-10A
Summary of the method: (§1)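 A 20 µl suspension of breast cancer cells was placed in 384-well plates that already contained compound at 5 concentrations in 10-fold steps across a compound-specific 10,000-fold range, and the plates were left for 72 h. CellTox Green fluorescence at 485/520 nm gave cell death, and CellTiter-Glo luminescence, read after 10 min at room temperature, gave viability. Each plate was normalised to 0.1 % DMSO and a positive kill control. EC50 was fitted from the curves and censored at the top concentration.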

[2] = test system: BT-474
Summary of the method: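 EC50 is the value from a fitted percent-inhibition dose-response curve, censored at the highest concentration, and rows with zero drug sensitivity score were not kept. The underlying assay seeded breast cancer cell lines in 20 µl onto 384-well plates pre-loaded with compound in 5 µl medium for 72 h. Viability was then read by CellTiter-Blue fluorescence at 560/590 nm after 2 h at 37 °C, with each plate normalised to vehicle and a positive kill control.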

[3] = test system: CAL-85-1
Summary of the method: as §1

[4] = test system: SK-BR-3
Summary of the method: as §1

[5] = test system: HDQ-P1
Summary of the method: as §1

[6] = test system: MCF-10A; remark: listed apart in the source
Summary of the method: as §1

[7] = test system: CAL-85-1; remark: listed apart in the source
Summary of the method: as §1

[8] = test system: HDQ-P1; remark: listed apart in the source
Summary of the method: as §1

[9] = test system: BT-474; remark: listed apart in the source
Summary of the method: as §1

[10] = test system: HCC1599
Summary of the method: as §1

[11] = test system: Hs578T
Summary of the method: as §1

[12] = test system: DU-4475
Summary of the method: as §1

[13] = test system: MDA-MB-231
Summary of the method: as §1

[14] = test system: MDA-MB-436
Summary of the method: as §1

[15] = test system: HCC1937
Summary of the method: as §1

[16] = test system: CAL-51
Summary of the method: as §1

[17] = test system: MDA-MB-468
Summary of the method: as §1

[18] = test system: CAL-120
Summary of the method: as §1

[19] = test system: CAL-148
Summary of the method: as §1

[20] = test system: MDA-MB-453
Summary of the method: as §1

[21] = test system: CAL-148; remark: listed apart in the source
Summary of the method: as §1

[22] = test system: MDA-MB-468; remark: listed apart in the source
Summary of the method: as §1

[23] = test system: MFM-223
Summary of the method: as §1

[24] = test system: MDA-MB-436; remark: listed apart in the source
Summary of the method: as §1

[25] = test system: HCC1143
Summary of the method: as §1

[26] = test system: BT-549
Summary of the method: as §1

[27] = test system: BT-474; remark: listed apart in the source
Summary of the method: as §1

[28] = test system: MFM-223; remark: listed apart in the source
Summary of the method: as §1

[29] = test system: Hs578T; remark: listed apart in the source
Summary of the method: as §1

[30] = test system: BT-549; remark: listed apart in the source
Summary of the method: as §1

[31] = test system: DU-4475; remark: listed apart in the source
Summary of the method: as §1

Structure (SMILES) | EC50, CellTox Green [1] | EC50, CellTiter-Blue viability [2] | EC50, CellTiter-Glo [3] | EC50, CellTiter-Glo [4] | EC50, CellTiter-Glo [5] | EC50, CellTiter-Glo [6] | EC50, CellTox Green [7] | EC50, CellTox Green [8] | EC50, CellTiter-Glo [9] | EC50, CellTiter-Glo [10] | EC50, CellTiter-Glo [11] | EC50, CellTiter-Glo [12] | EC50, CellTiter-Glo [13] | EC50, CellTiter-Glo [14] | EC50, CellTiter-Glo [15] | EC50, CellTiter-Glo [16] | EC50, CellTiter-Glo [17] | EC50, CellTiter-Glo [18] | EC50, CellTox Green [19] | EC50, CellTiter-Glo [20] | EC50, CellTiter-Glo [21] | EC50, CellTox Green [22] | EC50, CellTiter-Glo [23] | EC50, CellTox Green [24] | EC50, CellTiter-Glo [25] | EC50, CellTiter-Glo [26] | EC50, CellTox Green [27] | EC50, CellTox Green [28] | EC50, CellTox Green [29] | EC50, CellTox Green [30] | EC50, CellTox Green [31]
CS(=O)(=O)CCNCc1ccc(-c2ccc3ncnc(Nc4ccc(OCc5cccc(F)c5)c(Cl)c4)c3c2)o1 [Lapatinib] | 0.678 µM | 0.137 µM | 0.304 µM | 0.0498 µM | 0.359 µM | 0.504 µM | – | – | – | – | – | – | – | – | – | – | – | – | – | – | – | – | – | – | – | – | – | – | – | – | –
O=c1[nH]c(=O)n([C@H]2C[C@H](O)[C@@H](CO)O2)cc1F [Floxuridine] | – | – | 0.0795 µM | 0.0966 µM | – | – | 4.65 µM | 3.07 µM | 0.555 µM | 0.027 µM | 0.034 µM | 1.58 µM | 0.687 µM | 0.0577 µM | 0.211 µM | 0.0803 µM | 0.24 µM | 0.42 µM | – | – | – | – | – | – | – | – | – | – | – | – | –
COc1ccc(C2=N[C@@H](c3ccc(Cl)cc3)[C@@H](c3ccc(Cl)cc3)N2C(=O)N2CCNC(=O)C2)c(OC(C)C)c1 [Nutlin-3] | – | – | – | – | – | – | – | – | – | – | – | 2.95 µM | – | – | – | 0.0176 µM | – | – | 9.05 µM | 7.19 µM | 7.03 µM | – | – | – | – | – | – | – | – | – | –
CCOc1cc2ncc(C#N)c(Nc3ccc(OCc4ccccn4)c(Cl)c3)c2cc1NC(=O)/C=C/CN(C)C [Neratinib] | – | – | 0.0912 µM | 0.00249 µM | 0.309 µM | 0.0578 µM | 0.211 µM | – | – | – | – | – | – | – | – | 0.926 µM | 0.539 µM | 0.412 µM | 0.791 µM | 0.00756 µM | 0.0952 µM | 0.149 µM | 0.692 µM | – | – | – | – | – | – | – | –
COc1cccc2c1C(=O)c1c(O)c3c(c(O)c1C2=O)C[C@@](O)(C(C)=O)C[C@@H]3O[C@H]1C[C@H](N)[C@H](O)[C@H](C)O1 [Daunorubicin] | – | 0.16 µM | 0.38 µM | 0.254 µM | 0.519 µM | 0.633 µM | – | – | 0.169 µM | 0.57 µM | 0.229 µM | 0.211 µM | 0.221 µM | 0.175 µM | 0.692 µM | 0.0842 µM | 0.109 µM | 0.227 µM | – | 0.47 µM | 0.134 µM | 0.1 µM | 0.784 µM | 0.953 µM | 0.535 µM | 0.129 µM | – | – | – | – | –
Cc1cc(C(C)Nc2ccccc2)c2nc(N3CCOCC3)cc(=O)n2c1 (configuration not stated) [TGX-221] | – | – | – | – | – | – | – | 0.001 µM | 0.709 µM | – | – | – | – | – | – | 0.0228 µM | 3.56 µM | > 10 µM | – | – | – | – | – | – | – | 0.947 µM | – | – | – | – | –
O=C(c1ccc(OCCN2CCCCC2)cc1)c1c(-c2ccc(O)cc2)sc2cc(O)ccc12 [Raloxifene] | – | – | 3.61 µM | – | – | – | – | > 10 µM | 8.26 µM | 9.62 µM | – | – | – | – | – | – | 4.64 µM | – | – | – | – | – | 2.26 µM | – | – | – | – | – | – | – | –
CC(=O)O[C@H]1C(=O)[C@@]2(C)[C@H]([C@H](OC(=O)c3ccccc3)[C@]3(O)C[C@H](OC(=O)[C@H](O)[C@@H](NC(=O)c4ccccc4)c4ccccc4)C(C)=C1C3(C)C)[C@]1(OC(C)=O)CO[C@@H]1C[C@@H]2O [Paclitaxel] | 0.0168 µM | 0.00824 µM | 0.00473 µM | 0.00072 µM | 0.00281 µM | 0.00365 µM | 0.00242 µM | – | 0.00794 µM | 0.0169 µM | 0.00632 µM | 0.044 µM | 0.0107 µM | 0.00407 µM | 0.00262 µM | 0.00796 µM | 0.00347 µM | 0.00696 µM | 0.00116 µM | 0.0226 µM | 0.00196 µM | 0.00452 µM | 0.00586 µM | 0.0665 µM | 0.00337 µM | 0.00479 µM | 0.0115 µM | 0.0034 µM | 0.00411 µM | 0.00652 µM | –
COc1c(C)cnc(Cn2cnc3c(Cl)nc(N)nc32)c1C [BIIB021] | 0.189 µM | 0.0937 µM | 0.308 µM | 0.0137 µM | 0.242 µM | 0.354 µM | 3.95 µM | 1.96 µM | 0.421 µM | 0.19 µM | 0.756 µM | 0.329 µM | 0.483 µM | 0.141 µM | 0.157 µM | 0.227 µM | 0.37 µM | 0.247 µM | 0.0845 µM | 0.153 µM | 0.199 µM | – | 0.192 µM | – | 0.416 µM | 0.0926 µM | 1.79 µM | – | 0.321 µM | – | 0.293 µM
FC(F)c1nc2ccccc2n1-c1nc(N2CCOCC2)nc(N2CCOCC2)n1 [ZSTK474] | – | – | 0.779 µM | 0.206 µM | 0.436 µM | 0.54 µM | – | – | 3.04 µM | 0.538 µM | 0.493 µM | 6.59 µM | 0.72 µM | 0.498 µM | 2.73 µM | 1.01 µM | 0.677 µM | 0.958 µM | – | 0.491 µM | 1.26 µM | – | 0.737 µM | – | 1.13 µM | 0.396 µM | > 10 µM | 1.78 µM | – | – | –
Cn1cnc2c(F)c(Nc3ccc(Br)cc3F)c(C(=O)NOCCO)cc21 [MEK-162] | – | – | – | – | 0.0135 µM | 0.0118 µM | – | 0.123 µM | 0.113 µM | – | – | 0.0787 µM | – | – | – | – | – | > 1 µM | – | – | – | – | – | – | – | – | – | – | – | – | 0.508 µM
O=c1[nH]cc(F)c(=O)[nH]1 [Fluorouracil] | – | – | 0.272 µM | 0.556 µM | – | – | – | – | – | – | – | – | – | 0.425 µM | – | – | – | – | – | – | – | – | – | 7.05 µM | – | – | – | – | – | – | –
CCS(=O)(=O)c1cccc(-c2cc(C(=O)NC3CCN(C)CC3)c(C)c3[nH]c4ncc(C)cc4c23)c1 [TAK-901] | – | – | – | – | 0.642 µM | 0.151 µM | – | – | 0.152 µM | – | 0.445 µM | – | 0.144 µM | 0.299 µM | – | – | 0.0262 µM | 0.131 µM | – | – | – | – | 0.123 µM | – | 0.13 µM | 0.155 µM | – | – | – | 0.871 µM | –
